These results are taken from US8993603B2, “Pharmaceutical composition and method using antifungal agent in combination” (Toyama Chemical Co., Ltd., priority 2005, dated 2015).

For test [1], the system named is Aspergillus fumigatus TIMM0063. Description: Mouse systemic infection model using Aspergillus fumigatus. Format: in vivo. To be noted: ICR mice, 15 days after infection, test compound 0.1 mg/kg s.c., once a day, 7 times. Here is the method:
In vivo activity was evaluated employing a mouse systemic infection model using Aspergillus fumigatus.
As for the inoculum, mice (four-week old (at infection) male ICR mice, 10 mice per group) were intraperitoneally administered with cyclophosphamide 4 days prior to infection (200 mg/kg) and the day after infection (100 mg/kg). A conidium suspension of Aspergillus fumigatus TIMM0063 was diluted with sterile physiological saline solution containing 0.05% Tween 80 (manufactured by Difco Laboratories) to prepare an inoculum. The mice were intravenously inoculated in their tails with 0.2 mL of the inoculum to induce infection (approximately 4×10^4 CFU/mouse).
(§1) The test compound was dissolved in a small amount of 0.1 mol/L hydrochloric acid, and the resultant solution was diluted with sterile physiological saline solution.
Voriconazole was dissolved in 50 mg/mL aqueous sulfobutyl ether β-cyclodextrin sodium (SIDIX) solution.
Flucytosine was suspended in 0.5% methyl cellulose solution.
The test compound (0.1 mg/kg) and voriconazole (5 mg/kg) were subcutaneously administered and flucytosine (50 mg/kg) was orally administered 2 hours after infection and then once a day for 6 days for a total of 7 times. The test was carried out for the case where each of the agents was administered singly and in combination by administering each of the agents immediately after the test compound had been administered. Efficacy in the susceptibility test was evaluated by the survival rate 15 days after infection.

Test [2] relates to Cryptococcus neoformans ATCC90112. Nature of the test: Mouse systemic infection model using Cryptococcus neoformans. The test is classed as in vivo. To be noted: ICR mice, 22 days after infection, test compound 0.125 mg/kg s.c., once a day, 7 times. Here is the method: In vivo activity was evaluated employing a mouse systemic infection model using Cryptococcus neoformans.
Mice (four-week old (at infection) male ICR mice, 10 mice per group) were intraperitoneally administered with cyclophosphamide 4 days prior to infection (200 mg/kg) and the day after infection (100 mg/kg). An inoculum was prepared by suspending in sterile physiological saline solution Cryptococcus neoformans ATCC90112 on a SDA flat plate that had been cultured for one night at 35° C., counting the number of cells using a biological microscope, and then diluting with sterile physiological saline solution. The mice were intravenously inoculated in their tails with 0.2 mL of the inoculum to induce infection (approximately 8×10^4 CFU/mouse).
as §1
Fluconazole was prepared using sterile physiological saline solution.
Amphotericin B was dissolved in a 5% aqueous glucose solution.
The test compound (0.125 mg/kg), fluconazole (5 mg/kg) and amphotericin B (0.25 mg/kg) were subcutaneously administered 2 hours after infection and then once a day for 6 days a total of 7 times. The test was carried out for the case where the each of the agents was administered singly and in combination by administering each of the agents immediately after the test compound had been administered. Efficacy in the susceptibility test was evaluated by the survival rate 22 days after infection.

The mark [3] stands for this setting: Table 5, flucytosine 50 mg/kg orally.
[4] abbreviates: Table 7, amphotericin B 0.25 mg/kg s.c.
Where [5] appears, read: Table 6, fluconazole 5 mg/kg s.c.
Setting [6] is: Table 4, voriconazole 5 mg/kg s.c.

On to `Nc1[nH]c(=O)ncc1F` [5-FC, flucytosine], for which the “Survival rate (%)” value in test [1] (setting [3]) was 10%.
`C[C@@H]1[C@H](O)[C@@H](C)/C=C/C=C/C=C/C=C/C=C/C=C/C=C/[C@H](O[C@@H]2O[C@H](C)[C@@H](O)[C@H](N)[C@@H]2O)C[C@@H]2O[C@](O)(C[C@@H](O)C[C@@H](O)[C@H](O)CC[C@@H](O)C[C@@H](O)CC(=O)O[C@H]1C)C[C@H](O)[C@H]2C(=O)O` [AMPH-B, amphotericin B]: in test [2] (setting [4]), the “Survival rate (%)” value is 20%.
For the molecule `OC(Cn1cncn1)(Cn1cncn1)c1ccc(F)cc1F` [FLCZ, fluconazole], the “Survival rate (%)” value in test [2] (setting [5]) amounted to 10%.
`N=C(N)c1ccc(OCCCC2CCN(CCCOc3ccc(C(=N)N)cc3)CC2)cc1` [Test Compound]: the “Survival rate (%)” value in test [2] (setting [5]) is given as 20%; in test [2] (setting [4]) it was 0%; in test [1] (setting [6]) it was 10%; in test [1] (setting [3]) it was 10%.
Regarding `C[C@@H](c1ncncc1F)[C@](O)(Cn1cncn1)c1ccc(F)cc1F` [VLCZ, voriconazole], in test [1] (setting [6]), the “Survival rate (%)” value was determined as 10%.
